In one assay the test system is NCI-H2023. In words: relative viability (nuclei count vs DMSO), 5 days (fraction); higher = more cells survive. The note with it: first compound 0.08 µM. A digest of the protocol:
(§1)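 Each reported value is a median over duplicate plates. It expresses relative viability: treated-well nuclei count divided by vehicle-well nuclei count. Lung cancer cell lines in 1536-well plates were dosed by pin tool a day after seeding, alone with one drug or with a fixed anchor-drug dose plus five library-drug doses (not always all listed) in √10 steps, and nuclei were counted after 5 days.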
In the case of `C=C1C(=O)O[C@@H](CCCCCCCC)[C@@H]1C(=O)O` [C-75] + CC(=O)c1c(C)c2cnc(Nc3ccc(N4CCNCC4)cn3)nc2n(C2CCCC2)c1=O [Palbociclib] (partner 0.5 µM), the relative viability is 0.395.

Compound `C=C1C(=O)O[C@@H](CCCCCCCC)[C@@H]1C(=O)O` [C-75] + Nc1ncn([C@H]2C[C@H](O)[C@@H](CO)O2)c(=O)n1 [Decitabine] (partner 2 µM) registered a relative viability of 0.242.

The assay is the same for the next values; noted with them: first compound 0.253 µM.
`Oc1nc(-c2ccc(C(F)(F)F)cc2)nc2c1CSCC2` [XAV939] + O=C(CCCCCCC(=O)Nc1ccccc1)NO [Vorinostat] (partner 1 µM) showed a relative viability of 0.552.

Take `Oc1nc(-c2ccc(C(F)(F)F)cc2)nc2c1CSCC2` [XAV939] + O=C(c1cc(Cc2n[nH]c(=O)c3ccccc23)ccc1F)N1CCN(C(=O)C2CC2)CC1 [Olaparib] (partner 8 µM): the relative viability worked out at 0.38.

For `Oc1nc(-c2ccc(C(F)(F)F)cc2)nc2c1CSCC2` [XAV939] + CC(=O)c1c(C)c2cnc(Nc3ccc(N4CCNCC4)cn3)nc2n(C2CCCC2)c1=O [Palbociclib] (partner 0.5 µM), the relative viability amounted to 0.291.

For `C=C1C(=O)O[C@@H](CCCCCCCC)[C@@H]1C(=O)O` [C-75] + CC(=O)c1c(C)c2cnc(Nc3ccc(N4CCNCC4)cn3)nc2n(C2CCCC2)c1=O [Palbociclib] (partner 0.5 µM), the relative viability turned out to be 0.449.

`C=C1C(=O)O[C@@H](CCCCCCCC)[C@@H]1C(=O)O` [C-75] + Nc1ncn([C@H]2C[C@H](O)[C@@H](CO)O2)c(=O)n1 [Decitabine] (partner 2 µM): the relative viability was 0.22.

Staying with this assay, now noted: first compound 0.8 µM.
For the compound `Oc1nc(-c2ccc(C(F)(F)F)cc2)nc2c1CSCC2` [XAV939] + O=C(CCCCCCC(=O)Nc1ccccc1)NO [Vorinostat] (partner 1 µM), the relative viability was 0.574.

For `Oc1nc(-c2ccc(C(F)(F)F)cc2)nc2c1CSCC2` [XAV939] + O=C(c1cc(Cc2n[nH]c(=O)c3ccccc23)ccc1F)N1CCN(C(=O)C2CC2)CC1 [Olaparib] (partner 8 µM), the relative viability was 0.463.

Compound `Oc1nc(-c2ccc(C(F)(F)F)cc2)nc2c1CSCC2` [XAV939] + CC(=O)c1c(C)c2cnc(Nc3ccc(N4CCNCC4)cn3)nc2n(C2CCCC2)c1=O [Palbociclib] (partner 0.5 µM) came in with a relative viability of 0.328.

In turn, `C=C1C(=O)O[C@@H](CCCCCCCC)[C@@H]1C(=O)O` [C-75] + CC(=O)c1c(C)c2cnc(Nc3ccc(N4CCNCC4)cn3)nc2n(C2CCCC2)c1=O [Palbociclib] (partner 0.5 µM) registered a relative viability of 0.358.

In turn, `C=C1C(=O)O[C@@H](CCCCCCCC)[C@@H]1C(=O)O` [C-75] + Nc1ncn([C@H]2C[C@H](O)[C@@H](CO)O2)c(=O)n1 [Decitabine] (partner 2 µM) displayed a relative viability of 0.22.

Still in this assay, the particulars now being: first compound 2.53 µM.
`Oc1nc(-c2ccc(C(F)(F)F)cc2)nc2c1CSCC2` [XAV939] + O=C(CCCCCCC(=O)Nc1ccccc1)NO [Vorinostat] (partner 1 µM) had a relative viability of 0.461.

As for `Oc1nc(-c2ccc(C(F)(F)F)cc2)nc2c1CSCC2` [XAV939] + O=C(c1cc(Cc2n[nH]c(=O)c3ccccc23)ccc1F)N1CCN(C(=O)C2CC2)CC1 [Olaparib] (partner 8 µM), the relative viability stood at 0.402.

Compound `Oc1nc(-c2ccc(C(F)(F)F)cc2)nc2c1CSCC2` [XAV939] + CC(=O)c1c(C)c2cnc(Nc3ccc(N4CCNCC4)cn3)nc2n(C2CCCC2)c1=O [Palbociclib] (partner 0.5 µM) gave a relative viability of 0.295.

The compound `C=C1C(=O)O[C@@H](CCCCCCCC)[C@@H]1C(=O)O` [C-75] + CC(=O)c1c(C)c2cnc(Nc3ccc(N4CCNCC4)cn3)nc2n(C2CCCC2)c1=O [Palbociclib] (partner 0.5 µM) returned a relative viability of 0.244.

The assay is the same for the next values; noted with them: first compound 8 µM.
For the compound `C=C1C(=O)O[C@@H](CCCCCCCC)[C@@H]1C(=O)O` [C-75] + CC(=O)c1c(C)c2cnc(Nc3ccc(N4CCNCC4)cn3)nc2n(C2CCCC2)c1=O [Palbociclib] (partner 0.5 µM), the relative viability turned out to be 0.276.

In the case of `C=C1C(=O)O[C@@H](CCCCCCCC)[C@@H]1C(=O)O` [C-75] + Nc1ncn([C@H]2C[C@H](O)[C@@H](CO)O2)c(=O)n1 [Decitabine] (partner 2 µM), the relative viability is 0.188.

In a further assay the test system is NCI-H2347. Described as above. The following applies: first compound 0.08 µM. The method, boiled down:
as §1
`Oc1nc(-c2ccc(C(F)(F)F)cc2)nc2c1CSCC2` [XAV939] + O=C(CCCCCCC(=O)Nc1ccccc1)NO [Vorinostat] (partner 1 µM): the relative viability was 0.609.

For `Oc1nc(-c2ccc(C(F)(F)F)cc2)nc2c1CSCC2` [XAV939] + O=C(c1cc(Cc2n[nH]c(=O)c3ccccc23)ccc1F)N1CCN(C(=O)C2CC2)CC1 [Olaparib] (partner 8 µM), the relative viability turned out to be 0.667.

As to `Oc1nc(-c2ccc(C(F)(F)F)cc2)nc2c1CSCC2` [XAV939] + CC(=O)c1c(C)c2cnc(Nc3ccc(N4CCNCC4)cn3)nc2n(C2CCCC2)c1=O [Palbociclib] (partner 0.5 µM), the relative viability worked out at 0.403.

`C=C1C(=O)O[C@@H](CCCCCCCC)[C@@H]1C(=O)O` [C-75] + CC(=O)c1c(C)c2cnc(Nc3ccc(N4CCNCC4)cn3)nc2n(C2CCCC2)c1=O [Palbociclib] (partner 0.5 µM): the relative viability was 0.468.

For the compound `C=C1C(=O)O[C@@H](CCCCCCCC)[C@@H]1C(=O)O` [C-75] + Nc1ncn([C@H]2C[C@H](O)[C@@H](CO)O2)c(=O)n1 [Decitabine] (partner 2 µM), the relative viability stood at 0.673.

Still in this assay, the particulars now being: first compound 0.253 µM.
For `Oc1nc(-c2ccc(C(F)(F)F)cc2)nc2c1CSCC2` [XAV939] + O=C(CCCCCCC(=O)Nc1ccccc1)NO [Vorinostat] (partner 1 µM), the relative viability was determined as 0.496.

`Oc1nc(-c2ccc(C(F)(F)F)cc2)nc2c1CSCC2` [XAV939] + O=C(c1cc(Cc2n[nH]c(=O)c3ccccc23)ccc1F)N1CCN(C(=O)C2CC2)CC1 [Olaparib] (partner 8 µM) displayed a relative viability of 0.543.

Turning to `Oc1nc(-c2ccc(C(F)(F)F)cc2)nc2c1CSCC2` [XAV939] + CC(=O)c1c(C)c2cnc(Nc3ccc(N4CCNCC4)cn3)nc2n(C2CCCC2)c1=O [Palbociclib] (partner 0.5 µM), the relative viability came out at 0.412.

As to `C=C1C(=O)O[C@@H](CCCCCCCC)[C@@H]1C(=O)O` [C-75] + CC(=O)c1c(C)c2cnc(Nc3ccc(N4CCNCC4)cn3)nc2n(C2CCCC2)c1=O [Palbociclib] (partner 0.5 µM), the relative viability was 0.44.

Compound `C=C1C(=O)O[C@@H](CCCCCCCC)[C@@H]1C(=O)O` [C-75] + Nc1ncn([C@H]2C[C@H](O)[C@@H](CO)O2)c(=O)n1 [Decitabine] (partner 2 µM) showed a relative viability of 0.626.

Still in this assay, the particulars now being: first compound 0.8 µM.
In turn, `Oc1nc(-c2ccc(C(F)(F)F)cc2)nc2c1CSCC2` [XAV939] + O=C(CCCCCCC(=O)Nc1ccccc1)NO [Vorinostat] (partner 1 µM) displayed a relative viability of 0.593.

On to `Oc1nc(-c2ccc(C(F)(F)F)cc2)nc2c1CSCC2` [XAV939] + O=C(c1cc(Cc2n[nH]c(=O)c3ccccc23)ccc1F)N1CCN(C(=O)C2CC2)CC1 [Olaparib] (partner 8 µM), for which the relative viability turned out to be 0.569.

Values taken from the supplement of paper PMC10307832.
